These results are taken from patent US20250059170A1, “SOLID STATE FORMS OF AN FGFR INHIBITOR” (Kinnate Biopharma Inc., priority 2021, published 2025).

Values after ≈ are worked out from the molar mass of the structure shown.

What all share (format): physicochemical
Series [1] in a line: Preliminary solubility in 14 solvents by solvent addition with visual assessment. Particulars: thermodynamic from solid, RT. The text has this:
Preliminary solubility of Compound 1 (Form V) was estimated in 14 selected solvents at RT using solvent addition method via visual assessment of samples.

A short description of series [2]: Water activity studies in IPA/water. As to the method: Water activity studies of Form I, II and V were also performed in IPA/water with different water content at RT and 50° C.
Series [3] can be described thus: Solubility testing of Form II in SGF, water, FaSSIF and FeSSIF. To be noted: for solubility: thermodynamic from solid. The protocol: Nine crystal forms were identified, assigned as Form I-IX, including a mono-hydrate (Form I) four anhydrates (Form II, III, V and IX), a hemihydrate, (Form IV) and three solvates (Form VI, VII and VIII). […] The three solvates (Form VI, VII, and VIII) converted to Form II after desolvation and recrystallization during heating by DSC. Form II was evaluated by DVS, solubility and stability testing. […] The purity decreased by about 0.3% at 60° C. for 3 days and 7 days, mainly due to the increase of impurities at RRT 0.9, 0.91 and 1.07.
(§1) HPLC analysis was performed with an Agilent HPLC 1260 series instrument.

Series [4] is described as follows: Dynamic Vapor Sorption (DVS). The protocol: Moisture sorption/desorption data was collected on a DVS Intrinsic PLUS (SMS, UK). The sample was placed into a tared sample chamber and automatically weighed. The sample was dried at 40° C./0% RH until the dm/dt was less than 0.002% and cooled to 25° C.
A short description of series [5]: Solid stability of Form II. As to the method:
as §1
The solid stability of Form II was evaluated at 60° C. for 7 days, 40° C./75% RH for 6 days, and RT/92.5% RH for 2 days, respectively. […] The purity of Compound 1 decreased by about 0.3% at 60° C. for 3 days and 7 days, mainly due to the increase of the impurities at RRT 0.9, 0.91 and 1.07.

The nature of series [6]: Competitive slurry inter-conversion studies. To be noted: competitive slurries in non-aqueous solvents, RT and 50° C. As to the method: Competitive slurries of Form I, II and V were performed in IPAC at RT and 50° C. […] A competitive slurry of Form III and Form II was conducted in IPA and IPAC at RT and 50° C., respectively, and all mixtures converted to Form II after 1 day. A competitive slurry of Form II and IX was also performed in IPA and IPAC at RT and 50° C. […] In IPA at RT and IPA and EA at RT and 50° C., all mixtures tended to convert to Form II.

Series [7] can be described thus: Solid form characterization summary (hygroscopicity comment). Particulars: comment on solid form. The text has this:
A summary of the characterization data for the solid forms of Compound 1 identified is shown below in Table 15.

For `C=CC(=O)N1C[C@@H](n2nc(C#Cc3c(F)cc4c(ncn4C4CC4)c3F)c(C(N)=O)c2NC)C[C@@H]1COC` [Compound 1, 1-((3S,5R)-1-acryloyl-5-(methoxymethyl)pyrrolidin-3-yl)-3-((1-cyclopropyl-4,6-difluoro-1H-benzo[d]imidazol-5-yl)ethynyl)-5-(methylamino)-1H-pyrazole-4-carboxamide], the solubility (as a rule, how much of the substance goes into solution per volume) in series [1] (organic solvent or mixture, ACN, Form V material, read-out: Solubility) is 27000 to 36000 µg/mL (≈ 51.6 to 68.8 mM); in series [1] (organic solvent or mixture, Acetone, Form V material, read-out: Solubility), roughly 34000 µg/mL (≈ 64.9 mM); in series [1] (organic solvent or mixture, EA, Form V material, read-out: Solubility), roughly 8000 µg/mL (≈ 15.3 mM); in series [1] (organic solvent or mixture, EtOH, Form V material, read-out: Solubility), roughly 21000 µg/mL (≈ 40.1 mM); in series [1] (organic solvent or mixture, IPA, Form V material, read-out: Solubility) it was roughly 5000 µg/mL (≈ 9.55 mM); in series [1] (organic solvent or mixture, IPAC, Form V material, read-out: Solubility) it was roughly 4000 µg/mL (≈ 7.64 mM). Moreover, the solubility in series [1] (organic solvent or mixture, Isobutanol, Form V material, read-out: Solubility) is roughly 6000 µg/mL (≈ 11.5 mM); in series [1] (organic solvent or mixture, MEK, Form V material, read-out: Solubility), roughly 31000 µg/mL (≈ 59.2 mM); in series [1] (organic solvent or mixture, MTBE, Form V material, read-out: Solubility), less than 750 µg/mL; in series [1] (organic solvent or mixture, MeOH, Form V material, read-out: Solubility), greater than 106000 µg/mL; in series [1] (organic solvent or mixture, THF, Form V material, read-out: Solubility), greater than 100000 µg/mL; in series [1] (organic solvent or mixture, Toluene, Form V material, read-out: Solubility), less than 1000 µg/mL. Further, the solubility was less than 1000 µg/mL in series [1] (organic solvent or mixture, n-Heptane, Form V material, read-out: Solubility) and less than 1000 µg/mL in series [1] (Water, Form V material, read-out: Solubility).
Consider `C=CC(=O)N1C[C@@H](n2nc(C#Cc3c(F)cc4c(ncn4C4CC4)c3F)c(C(N)=O)c2NC)C[C@@H]1COC` [Form I, 1-((3S,5R)-1-acryloyl-5-(methoxymethyl)pyrrolidin-3-yl)-3-((1-cyclopropyl-4,6-difluoro-1H-benzo[d]imidazol-5-yl)ethynyl)-5-(methylamino)-1H-pyrazole-4-carboxamide], for which the entries for the “Water activity (aw) at which Form I is more stable than Form II” value in series [2] (50° C.) and in series [2] (RT) were no less than 0.75 and no less than 0.55, respectively.
Turning to `C=CC(=O)N1C[C@@H](n2nc(C#Cc3c(F)cc4c(ncn4C4CC4)c3F)c(C(N)=O)c2NC)C[C@@H]1COC` [Form II, 1-((3S,5R)-1-acryloyl-5-(methoxymethyl)pyrrolidin-3-yl)-3-((1-cyclopropyl-4,6-difluoro-1H-benzo[d]imidazol-5-yl)ethynyl)-5-(methylamino)-1H-pyrazole-4-carboxamide], the solubility is 800 µg/mL (≈ 1.53 mM) in series [3] (SGF, simulated gastric fluid) and roughly 3 µg/mL (≈ 0.00573 mM) in series [3] (water). The “Solubility in FeSSIF relative to FaSSIF” value in series [3] (at 24 h) was “about thirty times higher”. In series [4] (DVS), the Hygroscopicity entry was “slightly hygroscopic”. Moreover, the “Crystal form after DVS testing” value in series [4] (after DVS testing) was “remained unchanged”. Moreover, the Solid stability entry was “physically and chemically stable” in series [5] (40° C./75% RH for 6 days); “physically stable” in series [5] (RT/92.5% RH for 2 days). Moreover, the Purity decrease entry in series [5] (60° C. for 3 days and 7 days) is reported as “about 0.3%”. Moreover, the “Water activity (aw) at which the form is physically stable” value in series [2] (50° C.) was no more than 0.55; in series [2] (RT), no more than 0.35. Also, the “Relative stability of forms” value in series [6] is reported as “most stable form in non-aqueous solvents”.
`C=CC(=O)N1C[C@@H](n2nc(C#Cc3c(F)cc4c(ncn4C4CC4)c3F)c(C(N)=O)c2NC)C[C@@H]1COC` [Form III, 1-((3S,5R)-1-acryloyl-5-(methoxymethyl)pyrrolidin-3-yl)-3-((1-cyclopropyl-4,6-difluoro-1H-benzo[d]imidazol-5-yl)ethynyl)-5-(methylamino)-1H-pyrazole-4-carboxamide]: the Hygroscopicity entry in series [7] is “Hygroscopic”.
As to `C=CC(=O)N1C[C@@H](n2nc(C#Cc3c(F)cc4c(ncn4C4CC4)c3F)c(C(N)=O)c2NC)C[C@@H]1COC` [Form V, 1-((3S,5R)-1-acryloyl-5-(methoxymethyl)pyrrolidin-3-yl)-3-((1-cyclopropyl-4,6-difluoro-1H-benzo[d]imidazol-5-yl)ethynyl)-5-(methylamino)-1H-pyrazole-4-carboxamide], the solubility in series [1] (organic solvent or mixture, MeOH, THF, acetone, MEK and ACN, read-out: Solubility (relatively high)) is greater than 20000 µg/mL; in series [1] (non-polar solvents and water, read-out: Solubility (practically insoluble)), less than 1000 µg/mL.
